According to patent US8507493B2 (AbbVie Inc., priority 2009, dated 2013):

Biological target: T1, human 11β-HSD1 (Homo sapiens, UniProt P28845)
T1 construct: truncated (24-287aa) human 11β-HSD1 enzyme; made in house; host or cells: E. coli (lysate, not purified)
Test: Human 11β-HSD1 enzymatic SPA assay
Format: biochemical
Settings: truncated (24-287aa) human 11β-HSD1, apparent Ki from IC50 by Cheng-Prusoff
Experimental: The ability of test compounds to inhibit human 11β-HSD1 enzymatic activity in vitro was evaluated in a Scintillation Proximity Assay (SPA). Tritiated-cortisone substrate, NADPH cofactor and titrated compound were incubated with truncated (24-287aa) human 11β-HSD1 enzyme at room temperature to allow the conversion to cortisol to occur. The reaction was stopped by adding a non-specific 11β-HSD inhibitor, glycyrrhetinic acid. The tritiated cortisol was captured by a mixture of an anti-cortisol monoclonal antibody and SPA beads coated with anti-mouse antibodies. The reaction plate was shaken at room temperature and the radiolabel bound to SPA beads was then measured on a scintillation counter. The 11β-HSD1 assay was carried out in 96-well microtiter plates in a total volume of […]. To start the assay, 188 μL of master mix which contained 75 nM ^3H-cortisone, 100 nM cortisone and 181 μM NADPH was added to the wells. In order to drive the reaction in the 11β-reductase direction, 1 mM glucose-6-phosphate (G-6-P) and 1 U/mL G-6-P dehydrogenase were also added as a NADPH generating system. Solid compound was dissolved in dimethyl sulfoxide to make a 10 mM stock followed by a subsequent 10-fold serial dilution with dimethyl sulfoxide. Each compound solution in dimethyl sulfoxide was 10-fold diluted in Tris/EDTA buffer (pH 7.4). 22 μL of titrated compound were then added in duplicate to the substrate. Reactions were initiated by the addition of 10 μL of 0.1 mg/mL E. coli lysates overexpressing 11β-HSD1 enzyme. After shaking and incubating plates for 30 minutes at room temperature, reactions were stopped by adding 10 μL of 1 mM glycyrrhetinic acid. The product, tritiated cortisol, was captured by adding 10 μL of 1 μM monoclonal mouse anti-cortisol antibodies and 50 μL of SPA beads coated with anti-mouse antibodies. After shaking for 30 minutes, plates were read in a Microbeta scintillation counter. Percent inhibition was calculated based on the background and the maximal signal. Wells that contained substrate without compound or enzyme were used as the background, while the wells that contained substrate and enzyme without any compound were considered as maximal signal. Percent of inhibition of each compound was calculated relative to the maximal signal and IC50 curves were generated. Assuming competitive inhibition the Cheng-Prusoff equation was used to calculate apparent Ki values from the IC50 values. This assay was applied to 11β-HSD2 as well, whereby 6 nM tritiated cortisol and 250 uM NAD^+ were used as substrate and cofactor, respectively.

T1 sequence (P28845 24-287): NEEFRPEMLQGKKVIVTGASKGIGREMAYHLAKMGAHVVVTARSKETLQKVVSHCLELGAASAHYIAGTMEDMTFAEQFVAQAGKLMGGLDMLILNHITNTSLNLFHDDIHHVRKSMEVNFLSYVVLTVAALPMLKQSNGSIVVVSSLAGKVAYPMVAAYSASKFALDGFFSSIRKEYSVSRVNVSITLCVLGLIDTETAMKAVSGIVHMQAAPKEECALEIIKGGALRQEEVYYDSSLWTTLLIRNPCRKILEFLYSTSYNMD

| Compound | Ki [nM] |
| --- | --- |
| CC(C)(Oc1ccc(F)cc1Cl)C(=NC#N)NC1C2CC3CC1CC(O)(C3)C2 (stereo not drawn) [Example 1, (1E)-2-(2-Chloro-4-fluorophenoxy)-Y-cyano-N-[(E)-5-hydroxy-2-adamantyl]-2-methylpropanimidamide] | 10 to 100 |
| CC(C)(C(=NC#N)NC1C2CC3CC1CC(C(N)=O)(C3)C2)N1CCN(c2ccc(C(F)(F)F)cn2)CC1 (stereo not drawn) [Example 31, (E)-4-[((1E)-N-Cyano-2-methyl-2-{4-[5-(trifluoromethyl)pyridin-2-yl]piperazin-1-yl}propanimidoyl)amino]adamantane-1-carboxamide] | 100 to 1000 |
| CC(C)(Oc1ccccc1)C(=NC#N)NC12CCC(C(N)=O)(CC1)CC2 [Example 82, 4-{[N-cyano-2-methyl-2-phenoxypropanimidoyl]amino}bicyclo[2.2.2]octane-1-carboxamide] | 10 to 100 |
| COC(=O)C12CC3CC(C1)C(N/C(=N/C#N)C(C)(C)Oc1ccc(Cl)cc1F)C(C3)C2 (stereo not drawn) [Example 63, methyl(E)-4-{[(1E)-2-(4-chloro-2-fluorophenoxy)-N-cyano-2-methylpropanimidoyl]amino}adamantane-1-carboxylate] | 10 to 100 |
| CC(C)(Oc1ccc(Cl)cn1)C(=NC#N)NC1C2CC3CC1CC(C#N)(C3)C2 (stereo not drawn) [Example 59, (1E)-2-[(5-chloropyridin-2-yl)oxy]-N′-cyano-N-[(E)-5-cyanoadamantan-2-yl]-2-methylpropanimidamide] | 100 to 1000 |
| CC(C)(Oc1ccc(Cl)cc1)C(=NC#N)NC12CCC(C(=O)O)(CC1)CC2 [Example 46, 4-{[2-(4-chlorophenoxy)-N-cyano-2-methylpropanimidoyl]amino}bicyclo[2.2.2]octane-1-carboxylic acid] | > 1000 |
| CC(C)(Oc1ccccc1)C(=NC#N)NC12CCC(C(F)F)(CC1)CC2 [Example 86, N-cyano-N-[4-(difluoromethyl)bicyclo[2.2.2]oct-1-yl]-2-methyl-2-phenoxypropanimidamide] | 10 to 100 |
| (1E)-N-(adamantan-1-yl)-N-cyano-2-(2,4-difluorophenoxy)-2-methylpropanimidamide [Example 71] | 10 to 100 |
| CC(C)(Oc1ccc(Cl)cc1)C(=NC#N)NC12CCC(C(N)=O)(CC1)CC2 [Example 47, 4-{[2-(4-chlorophenoxy)-N-cyano-2-methylpropanimidoyl]amino}bicyclo[2.2.2]octane-1-carboxamide] | 10 to 100 |
| CC(C)(Oc1ccc(Cl)cc1F)C(=NC#N)NC1C2CC3CC(C2)CC1C3 (stereo not drawn) [Example 62, (1E)-N-[(E)-adamantan-2-yl]-2-(4-chloro-2-fluorophenoxy)-N-cyano-2-methylpropanimidamide] | 10 to 100 |
| COC(=O)C12CC3CC(C1)C(NC(=NC#N)C(C)(C)OCc1ccc(OC)cc1)C(C3)C2 (stereo not drawn) [Example 28, Methyl(E)-4-({(1E)-N-cyano-2-[(4-methoxybenzyl)oxy]-2-methylpropanimidoyl}amino)adamantane-1-carboxylate] | 100 to 1000 |
| CC(C)(Oc1ccc(Cl)cc1)C(=NC#N)NC12CCC(C(N)=O)(CC1)C2 [Example 88, 4-{[2-(4-chlorophenoxy)-N-cyano-2-methylpropanimidoyl]amino}bicyclo[2.2.1]heptane-1-carboxamide] | 100 to 1000 |
| [H]/N=C(/NC1C2CC3CC1CC(C(N)=O)(C3)C2)C(C)(C)Oc1ccccc1 (stereo not drawn) [Example 76, (E)-4-[(2-methyl-2-phenoxypropanimidoyl)amino]adamantane-1-carboxamide] | > 1000 |
| CC(C)(Oc1ccc(F)cc1F)/C(=N\C#N)N[C@@H]1[C@@H]2C[C@@H]3C[C@H]1C[C@@](S(N)(=O)=O)(C3)C2 [Example 57] | 10 to 100 |
| CC(C)(Oc1ccc(Cl)cc1F)C(=NC#N)NC1CC2CCC1C2 (stereo not drawn) [Example 66, N-(exo-bicyclo[2.2.1]hept-2-yl)-2-(4-chloro-2-fluorophenoxy)-N-cyano-2-methylpropanimidamide] | 100 to 1000 |
| Cc1c(Cl)cccc1S(=O)(=O)N1CCC[C@H](C(=NC#N)NC2CCCCC2)C1 [Example 35, (3S)-1-[(3-Chloro-2-methylphenyl)sulfonyl]-N′-cyano-N-cyclohexylpiperidine-3-carboximidamide] | > 1000 |
| CC(C)(Oc1ccc(Cl)cc1)C(=NC#N)NC12CCC(C(F)F)(CC1)CC2 [Example 85, 2-(4-chlorophenoxy)-N′-cyano-N-[4-(difluoromethyl)bicyclo[2.2.2]oct-1-yl]-2-methylpropanimidamide] | 100 to 1000 |

| Compound | Ki [nM] |
| --- | --- |
| CC(C)(Oc1ccc(F)cc1F)C(=NC#N)NC12CC3CC(CC1C3)C2 [Example 69] | 10 to 100 |
| CC(C)(Oc1ccc(Cl)cc1)C(=NC#N)NC1C2CC3CC1CC(S(C)(=O)=O)(C3)C2 (stereo not drawn) [Example 19, (1E)-2-(4-Chlorophenoxy)-N-cyano-2-methyl-N-[(E)-5-(methylsulfonyl)-2-adamantyl]propanimidamide] | 10 to 100 |
| CC(C)(Oc1ccc(Cl)cc1)/C(=N\C#N)NC12CC3CC(CC1C3)C2 [Example 38, (1E)-2-(4-Chlorophenoxy)-N′-cyano-N-hexahydro-2,5-methanopentalen-3a(1H)-yl-2-methylpropanimidamide] | 10 to 100 |
| CC(C)(Oc1ccc(Cl)cc1)C(=NC#N)NC1C2CC3CC1CC(O)(C3)C2 (stereo not drawn) [Example 8, (1E)-2-(4-Chlorophenoxy)-N′-cyano-N-[(E)-5-hydroxy-2-adamantyl]-2-methylpropanimidamide] | ≤ 10 |
| CC(C)(OCc1ccc(C(F)(F)F)cc1)C(=NC#N)NC1C2CC3CC1CC(C#N)(C3)C2 (stereo not drawn) [Example 27, (1E)-N-Cyano-N-[(E)-5-cyano-2-adamantyl]-2-methyl-2-{[4-(trifluoromethyl)benzyl]oxy}propanimidamide] | ≤ 10 |
| COC(=O)C12CC3CC(C1)C(NC(=NC#N)C(C)(C)N1CCN(c4ccc(C(F)(F)F)cn4)CC1)C(C3)C2 (stereo not drawn) [Example 29, Methyl(E)-4-[((1E)-N-cyano-2-methyl-2-{4-[5-(trifluoromethyl)pyridin-2-yl]piperazin-1-yl}propanimidoyl)amino]adamantane-1-carboxylate] | 100 to 1000 |
| CC(C)(Oc1ccc(F)cc1F)C(=NC#N)NC1C2CC3CC1CC(O)(C3)C2 (stereo not drawn) [Example 51, (1E)-N′-cyano-2-(2,4-difluorophenoxy)-N-[(E)-5-hydroxyadamantan-2-yl]-2-methylpropanimidamide] | ≤ 10 |
| CC(C)(Oc1ccccc1)C(=NC#N)NC12CCC(C#N)(CC1)C2 [Example 83, N′-cyano-N-(4-cyanobicyclo[2.2.1]hept-1-yl)-2-methyl-2-phenoxypropanimidamide] | 100 to 1000 |
| CC(C)(OCc1ccc(C(F)(F)F)cc1)/C(=N\C#N)N[C@@H]1[C@@H]2C[C@@H]3C[C@H]1C[C@@](C(N)=O)(C3)C2 [Example 25, (E)-4-[((1E)-N-Cyano-2-methyl-2-{[4-(trifluoromethyl)benzyl]oxy}propanimidoyl)amino]adamantane-1-carboxamide] | 10 to 100 |
| CC(C)(Oc1ccc(Cl)cc1F)C(=NC#N)NC12CC3CC(CC(C3)C1)C2 [Example 60] | 10 to 100 |
| CC(C)(Oc1ccc(Cl)cc1)C(=NC#N)NC1C2CC3CC1CC(S(N)(=O)=O)(C3)C2 (stereo not drawn) [Example 10, (1E)-N-[(E)-5-(Aminosulfonyl)-2-adamantyl]-2-(4-chlorophenoxy)-N′-cyano-2-methylpropanimidamide] | 100 to 1000 |
| CC(C)(Oc1ccc(F)cc1F)/C(=N\C#N)N[C@@H]1[C@@H]2C[C@@H]3C[C@H]1C[C@@](C#N)(C3)C2 [Example 52, (1E)-N′-cyano-N-[(E)-5-cyanoadamantan-2-yl]-2-(2,4-difluorophenoxy)-2-methylpropanimidamide] | 10 to 100 |
| Cc1ccccc1CC(=NC#N)NC1C2CC3CC1CC(O)(C3)C2 (stereo not drawn) [Example 2, (1E)-N-Cyano-N-[(E)-5-hydroxy-2-adamantyl]-2-(2-methylphenyl)ethanimidamide] | > 1000 |
| CC(C)(Oc1ccc(F)cc1Cl)C(=S)N[C@@H]1[C@@H]2C[C@@H]3C[C@H]1C[C@@](S(C)(=O)=O)(C3)C2 [Example 12, 2-(2-Chloro-4-fluorophenoxy)-2-methyl-N-[(E)-5-(methylsulfonyl)-2-adamantyl]propanethioamide] | 10 to 100 |
| CC(C)(Oc1ccc(Cl)cc1)/C(=N\C#N)N[C@@H]1[C@@H]2C[C@@H]3C[C@H]1C[C@@](C#N)(C3)C2 [Example 37, (1E)-2-(4-Chlorophenoxy)-N′-cyano-N-[(E)-5-cyano-2-adamantyl]-2-methylpropanimidamide] | 10 to 100 |
| CC(C)(Oc1ccccc1)/C(=N\C#N)NC1C2CC3CC1CC(S(C)(=O)=O)(C3)C2 (stereo not drawn) [Example 64, (1E)-N-cyano-2-methyl-N-[(E)-5-(methylsulfonyl)adamantan-2-yl]-2-phenoxypropanimidamide] | ≤ 10 |
